From the supplement of paper PMC10307832

What was measured:
Test in all cases: relative viability (nuclei count vs DMSO), 5 days (fraction); higher = more cells survive
UMC-11 = system: UMC-11
Method in brief: (§1)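 Dosing by pin tool came one day after lung cancer cell lines were seeded in 1536-well plates, using either one drug or a fixed anchor-drug dose plus five library-drug doses (not always all listed) in √10 steps. After 5 days, nuclei were counted on 4× images. Relative viability is treated-well nuclei count divided by vehicle-well nuclei count, and values are medians of duplicate plates.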

CAL-12T = system: CAL-12T
Method in brief: as §1

LC-2-ad = system: LC-2-ad
Method in brief: as §1

NCI-H2228 = system: NCI-H2228
Method in brief: as §1

RERF-LC-KJ = system: RERF-LC-KJ
Method in brief: as §1

NCI-H1755 = system: NCI-H1755
Method in brief: as §1

NCI-H2405 = system: NCI-H2405
Method in brief: as §1

NCI-H1944 = system: NCI-H1944
Method in brief: as §1

LU99A = system: LU99A
Method in brief: as §1

NCI-H2170 = system: NCI-H2170
Method in brief: as §1

NCI-H1395 = system: NCI-H1395
Method in brief: as §1

ChaGo-K-1 = system: ChaGo-K-1
Method in brief: as §1

NCI-H460 = system: NCI-H460
Method in brief: as §1

HCC-366 = system: HCC-366
Method in brief: as §1

LOU-NH91 = system: LOU-NH91
Method in brief: as §1

NCI-H3122 = system: NCI-H3122
Method in brief: as §1

NCI-H2087 = system: NCI-H2087
Method in brief: as §1

NCI-H1651 = system: NCI-H1651
Method in brief: as §1

ABC-1 = system: ABC-1
Method in brief: as §1

PC-3 [JPC-3] = system: PC-3 [JPC-3]
Method in brief: as §1

HCC-78 = system: HCC-78
Method in brief: as §1

NCI-H1793 = system: NCI-H1793
Method in brief: as §1

## COc1cc2nccc(Oc3ccc(NC(=O)Nc4cc(C)on4)c(Cl)c3)c2cc1OC [Tivozanib] + N=C(N)NC(=N)NCCc1ccccc1 [Phenformin] (partner 250 µM)
UMC-11; first compound 0.005 µM
  relative viability: 0.324
UMC-11; first compound 0.01581 µM
  relative viability: 0.332
UMC-11; first compound 0.05 µM
  relative viability: 0.329
UMC-11; first compound 0.5 µM
  relative viability: 0.25
CAL-12T; first compound 0.005 µM
  relative viability: 0.538
CAL-12T; first compound 0.01581 µM
  relative viability: 0.554
CAL-12T; first compound 0.05 µM
  relative viability: 0.494
CAL-12T; first compound 0.1581 µM
  relative viability: 0.625
CAL-12T; first compound 0.5 µM
  relative viability: 0.558
LC-2-ad; first compound 0.005 µM
  relative viability: 0.593
LC-2-ad; first compound 0.01581 µM
  relative viability: 0.548
LC-2-ad; first compound 0.05 µM
  relative viability: 0.579
LC-2-ad; first compound 0.1581 µM
  relative viability: 0.514
LC-2-ad; first compound 0.5 µM
  relative viability: 0.387
NCI-H2228; first compound 0.005 µM
  relative viability: 0.306
NCI-H2228; first compound 0.01581 µM
  relative viability: 0.283
NCI-H2228; first compound 0.05 µM
  relative viability: 0.325
NCI-H2228; first compound 0.1581 µM
  relative viability: 0.288
NCI-H2228; first compound 0.5 µM
  relative viability: 0.406
RERF-LC-KJ; first compound 0.005 µM
  relative viability: 0.402
RERF-LC-KJ; first compound 0.01581 µM
  relative viability: 0.375
RERF-LC-KJ; first compound 0.05 µM
  relative viability: 0.468
RERF-LC-KJ; first compound 0.1581 µM
  relative viability: 0.411
RERF-LC-KJ; first compound 0.5 µM
  relative viability: 0.382
NCI-H1755; first compound 0.005 µM
  relative viability: 0.585
NCI-H1755; first compound 0.01581 µM
  relative viability: 0.605
NCI-H1755; first compound 0.05 µM
  relative viability: 0.631
NCI-H1755; first compound 0.1581 µM
  relative viability: 0.644
NCI-H1755; first compound 0.5 µM
  relative viability: 0.459
NCI-H2405; first compound 0.005 µM
  relative viability: 0.418
NCI-H2405; first compound 0.01581 µM
  relative viability: 0.401
NCI-H2405; first compound 0.05 µM
  relative viability: 0.436
NCI-H2405; first compound 0.1581 µM
  relative viability: 0.373
NCI-H2405; first compound 0.5 µM
  relative viability: 0.375
NCI-H1944; first compound 0.005 µM
  relative viability: 0.189
NCI-H1944; first compound 0.01581 µM
  relative viability: 0.202
NCI-H1944; first compound 0.05 µM
  relative viability: 0.208
NCI-H1944; first compound 0.1581 µM
  relative viability: 0.21
NCI-H1944; first compound 0.5 µM
  relative viability: 0.188
LU99A; first compound 0.005 µM
  relative viability: 0.79
LU99A; first compound 0.01581 µM
  relative viability: 0.768
LU99A; first compound 0.05 µM
  relative viability: 0.879
LU99A; first compound 0.1581 µM
  relative viability: 0.769
LU99A; first compound 0.5 µM
  relative viability: 0.755
NCI-H2170; first compound 0.005 µM
  relative viability: 0.413
NCI-H2170; first compound 0.01581 µM
  relative viability: 0.42
NCI-H2170; first compound 0.05 µM
  relative viability: 0.395
NCI-H2170; first compound 0.1581 µM
  relative viability: 0.424
NCI-H2170; first compound 0.5 µM
  relative viability: 0.421
NCI-H1395; first compound 0.005 µM
  relative viability: 0.357
NCI-H1395; first compound 0.01581 µM
  relative viability: 0.475
NCI-H1395; first compound 0.05 µM
  relative viability: 0.444
NCI-H1395; first compound 0.1581 µM
  relative viability: 0.426
NCI-H1395; first compound 0.5 µM
  relative viability: 0.383
ChaGo-K-1; first compound 0.005 µM
  relative viability: 0.474
ChaGo-K-1; first compound 0.01581 µM
  relative viability: 0.488
ChaGo-K-1; first compound 0.05 µM
  relative viability: 0.492
ChaGo-K-1; first compound 0.1581 µM
  relative viability: 0.507
ChaGo-K-1; first compound 0.5 µM
  relative viability: 0.433
NCI-H460; first compound 0.005 µM
  relative viability: 0.491
NCI-H460; first compound 0.01581 µM
  relative viability: 0.537
NCI-H460; first compound 0.05 µM
  relative viability: 0.509
NCI-H460; first compound 0.1581 µM
  relative viability: 0.547
NCI-H460; first compound 0.5 µM
  relative viability: 0.503
HCC-366; first compound 0.005 µM
  relative viability: 0.615
HCC-366; first compound 0.01581 µM
  relative viability: 0.588
HCC-366; first compound 0.05 µM
  relative viability: 0.632
HCC-366; first compound 0.1581 µM
  relative viability: 0.643
HCC-366; first compound 0.5 µM
  relative viability: 0.611
LOU-NH91; first compound 0.005 µM
  relative viability: 0.65
LOU-NH91; first compound 0.01581 µM
  relative viability: 0.667
LOU-NH91; first compound 0.05 µM
  relative viability: 0.748
LOU-NH91; first compound 0.1581 µM
  relative viability: 0.654
LOU-NH91; first compound 0.5 µM
  relative viability: 0.676
NCI-H3122; first compound 0.005 µM
  relative viability: 0.376
NCI-H3122; first compound 0.01581 µM
  relative viability: 0.419
NCI-H3122; first compound 0.05 µM
  relative viability: 0.383
NCI-H3122; first compound 0.1581 µM
  relative viability: 0.361
NCI-H3122; first compound 0.5 µM
  relative viability: 0.344
NCI-H2087; first compound 0.005 µM
  relative viability: 0.416
NCI-H2087; first compound 0.01581 µM
  relative viability: 0.444
NCI-H2087; first compound 0.05 µM
  relative viability: 0.496
NCI-H2087; first compound 0.1581 µM
  relative viability: 0.407
NCI-H2087; first compound 0.5 µM
  relative viability: 0.415
NCI-H1651; first compound 0.005 µM
  relative viability: 0.297
NCI-H1651; first compound 0.01581 µM
  relative viability: 0.425
NCI-H1651; first compound 0.05 µM
  relative viability: 0.314
NCI-H1651; first compound 0.1581 µM
  relative viability: 0.36
NCI-H1651; first compound 0.5 µM
  relative viability: 0.315
ABC-1; first compound 0.005 µM
  relative viability: 0.236
ABC-1; first compound 0.01581 µM
  relative viability: 0.246
ABC-1; first compound 0.05 µM
  relative viability: 0.268
ABC-1; first compound 0.1581 µM
  relative viability: 0.201
ABC-1; first compound 0.5 µM
  relative viability: 0.24
PC-3 [JPC-3]; first compound 0.005 µM
  relative viability: 0.477
PC-3 [JPC-3]; first compound 0.01581 µM
  relative viability: 0.468
PC-3 [JPC-3]; first compound 0.05 µM
  relative viability: 0.516
PC-3 [JPC-3]; first compound 0.1581 µM
  relative viability: 0.427
PC-3 [JPC-3]; first compound 0.5 µM
  relative viability: 0.481
HCC-78; first compound 0.005 µM
  relative viability: 0.619
HCC-78; first compound 0.01581 µM
  relative viability: 0.658
HCC-78; first compound 0.05 µM
  relative viability: 0.85
HCC-78; first compound 0.1581 µM
  relative viability: 0.529
HCC-78; first compound 0.5 µM
  relative viability: 0.655
NCI-H1793; first compound 0.005 µM
  relative viability: 0.35
NCI-H1793; first compound 0.01581 µM
  relative viability: 0.352
NCI-H1793; first compound 0.05 µM
  relative viability: 0.419
NCI-H1793; first compound 0.1581 µM
  relative viability: 0.309
NCI-H1793; first compound 0.5 µM
  relative viability: 0.335
